The values that follow come from patent publication US7875607B2, “7,8-bicycloakyl-chroman derivatives” (Ampere Life Sciences, Inc., priority 2004, dated 2011).

Assay [1] has as its system LTB4 release from MPRO cell line. Nature of the assay: LTB4-cell assay. The conditions noted are these: Mus musculus; differentiated MPRO cells, 1 μM A23187, 1 hour; read-out: EC50, inhibition of LTB4. It counts as cell-based. On the procedure: This procedure was used for measuring the release of the leukotriene LTB4 from a neutrophil cell line using a competitive ELISA technique.
A mouse promyelocytic cell line (MPRO) was used in this assay. These cells are committed immature neutrophils that can be differentiated into mature neutrophils by treatment with 10 μM all-trans retinoic acid for 72 hours
Following 72 hours of differentiation, cells were stimulated with 1 μM of a calcium ionophore (A23187) in the presence or absence of test compound or vehicle for 1 hour at 37° C. After this time, supernatant was removed from the cells and the LTB4 levels were determined following manufacturer's instructions, using a Leukotriene B4 EIA kit from Cayman (Cat # 520111)
The negative controls were media samples from differentiated but unstimulated cells.
The compounds were screened at 5 concentrations in quadruplicate starting at 10 μM

Assay [2] deals with T1, porcine leukocyte 12/15-lipoxygenase (Sus scrofa, UniProt P16469).
T1 sequence (P16469 1-663): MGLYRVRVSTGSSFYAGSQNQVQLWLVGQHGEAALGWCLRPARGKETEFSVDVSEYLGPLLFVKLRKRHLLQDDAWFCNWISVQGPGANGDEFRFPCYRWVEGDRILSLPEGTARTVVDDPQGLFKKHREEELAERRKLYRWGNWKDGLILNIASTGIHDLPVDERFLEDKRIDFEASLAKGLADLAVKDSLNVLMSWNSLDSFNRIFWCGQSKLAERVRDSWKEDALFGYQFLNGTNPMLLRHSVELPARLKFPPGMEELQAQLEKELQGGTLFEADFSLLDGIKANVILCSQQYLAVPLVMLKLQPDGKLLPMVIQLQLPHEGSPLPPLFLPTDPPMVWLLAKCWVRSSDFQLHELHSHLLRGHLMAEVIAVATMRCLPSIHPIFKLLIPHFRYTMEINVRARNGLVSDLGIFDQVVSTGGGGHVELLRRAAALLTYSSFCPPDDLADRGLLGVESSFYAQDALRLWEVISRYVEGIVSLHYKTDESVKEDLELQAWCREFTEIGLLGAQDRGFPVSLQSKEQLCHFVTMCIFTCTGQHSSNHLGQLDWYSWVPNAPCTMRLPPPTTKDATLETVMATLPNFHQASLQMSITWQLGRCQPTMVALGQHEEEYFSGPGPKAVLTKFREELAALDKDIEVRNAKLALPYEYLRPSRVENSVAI
In words: 12/15-Lipoxygenase enzyme assay. It counts as biochemical. The conditions noted are these: 70 μM arachidonic acid, pH 7.4; read-out: IC50, inhibition of 12/15-Lipoxygenase. On the procedure:
This procedure was used for measuring the enzymatic activity of porcine leukocyte 12/15-lipoxygenase using a calorimetric method based on the ferric oxidation of xylenol orange.
(§1) Porcine Leukocyte 12/15-lipoxygenase (Cayman Cat # 60300) was used in this assay. Test compound and/or vehicle was added to 1.3U 12/15-lipoxygenase in 50 mM Tris-HCl buffer, pH 7.4. The reaction was initiated by addition of 70 μM arachidonic acid in Tris-HCl buffer, pH 7.4, and terminated after a 10 minute incubation at room temperature by addition of FOX reagent (25 mM sulphuric acid, 100 μM xylenol orange, 100 μM iron (II) sulphate, methanol:water 9:1). The yellow color of acidified xylenol orange was converted to a blue color by the lipid hydroperoxide-mediated oxidation of Fe^2+ ions and the interaction of the resulting Fe^3+ ions with the dye. The complex was allowed to form during a 1 hour incubation at room temperature with shaking. Absorbance of the Fe^3+ complex was then measured at […] using a spectrophotometer.
(§2) Negative controls contained enzyme during the incubation step but substrate was not added until after the FOX reagent.
Compounds are screened at 5 concentrations in triplicate starting at 10 μM

For assay [3], the system named is LTB4 production in heparinized whole blood. In words: Inhibition of LTB4 production in blood. It counts as cell-based, rat or mouse. The conditions noted are these: 20 μM A23187, read-out: EC50, protection against LTB4. On the procedure: The blood was collected in heparinized tubes or syringes to prevent clotting. Heparin was at 20 USP U/ml. About 3-5 ml of blood was collected per rat and about 0.5-0.75 ml per mouse. This assay required 200 μl/data point, therefore a 96 well plate requires 20 ml.
The Calcium ionophore A23187 was prepared as a 10 mM stock solution in DMSO and the test agent is prepared in DMSO so that <1 μl DMSO will be added to the well
200 μl blood per well were added in a round bottom 96 well clear plastic 96 well plate followed by the test agent. After 10 minutes incubation at 37° C., 5 μl of Calcium ionophore A23187 for a final concentration of 20 μM were added and mixed, and further incubated for 30 min. After 1000×g centrifugation to pellet blood cells, 20 μl plasma was carefully removed.
20 μl plasma were added to 80 μl methanol to precipitate protein and mixed. This was further incubated 10 min. at room temperature and centrifuged at 1000×g to pellet protein.
Following manufacturer's instructions, the commercially available EIA kit was used to subsequently measure the LTB4 production in the samples. The LTB4 levels produced in the vehicle control sample were then compared to those in which the test compound had been added. From this a percent inhibition of LTB4 production by each concentration of test compound was calculated and the IC50 for inhibition of LTB4 production for each test compound was determined.

In assay [4] the target is T2, human recombinant 5-lipoxygenase (Homo sapiens, UniProt P09917).
T2 construct: purchased Cayman 60402
T2 sequence (P09917 1-674): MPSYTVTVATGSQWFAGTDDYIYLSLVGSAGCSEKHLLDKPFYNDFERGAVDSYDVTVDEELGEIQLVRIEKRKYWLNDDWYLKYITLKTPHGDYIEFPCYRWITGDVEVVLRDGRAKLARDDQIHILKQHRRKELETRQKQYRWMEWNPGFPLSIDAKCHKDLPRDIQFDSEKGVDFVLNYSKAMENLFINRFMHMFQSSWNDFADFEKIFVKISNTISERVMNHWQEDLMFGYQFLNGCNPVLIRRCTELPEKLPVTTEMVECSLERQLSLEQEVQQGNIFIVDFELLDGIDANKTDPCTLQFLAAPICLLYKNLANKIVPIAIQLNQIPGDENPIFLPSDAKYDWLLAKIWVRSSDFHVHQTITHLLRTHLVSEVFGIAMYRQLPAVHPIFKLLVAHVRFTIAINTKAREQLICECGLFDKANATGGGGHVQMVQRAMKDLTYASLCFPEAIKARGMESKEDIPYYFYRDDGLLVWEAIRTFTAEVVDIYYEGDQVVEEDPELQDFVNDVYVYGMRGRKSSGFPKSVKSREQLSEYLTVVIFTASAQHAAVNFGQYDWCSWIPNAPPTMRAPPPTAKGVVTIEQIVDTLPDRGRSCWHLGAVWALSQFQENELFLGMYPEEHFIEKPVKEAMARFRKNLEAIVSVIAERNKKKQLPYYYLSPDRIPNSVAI
In words: 5-Lipoxygenase enzyme assay. It counts as biochemical. The conditions noted are these: 70 μM arachidonic acid, pH 7.4. As for the experimental part: This procedure was used for measuring the enzymatic activity of human recombinant 5-lipoxygenase using a […] method based on the ferric oxidation of xylenol orange.
as §1, with “Human recombinant 5-lipoxygenase” for “Porcine Leukocyte 12/15-lipoxygenase”, “60402)” for “60300)”, “The test” for “Test”, “0.5U 5-lipoxygenase” for “1.3U 12/15-lipoxygenase”
as §2
Compounds were screened at 5 concentrations in triplicate starting at 10 μM

For assay [5], the system named is dopaminergic neuronal cell line. Nature of the assay: High glutamate-induced oxidative stress assay (HGOS). It counts as cell-based. The conditions noted are these: Mus musculus; 30 mM glutamate, 16 hrs; read-out: EC50, protection against HGOS cell injury and cell death. The source says:
Protection against redox stress can be further evaluated in cell culture using high glutamate induced oxidative stress (HGOS) in mouse dopaminergic cell lines. The cytotoxic effect of glutamate is not due to excitotoxicity, as this cell line is devoid of inotropic glutamate receptors. Rather, the glutamate-induced toxicity of dopaminergic cells is associated with an inhibition of cystine transport which subsequently leads to depletion of intracellular glutathione (GSH) levels (Murphy T. H., et al. Neuron 2, 1547-1558, 1989), activation of neuronal 12-lipoxygenase (Li, Y. et al., Neuron 19, 453-463, 1997), increased ROS production (Tan S. et al., J. Cell Biol. 141, 1423-1432, 1998) and elevated intracellular Ca^2+ (Li, Y. et al., see supra). Some molecules were measured for their ability to protect cells against glutamate-induced stress and the assay is detailed in Examples.
This procedure was used to induce high glutamate-induced oxidative stress (HGOS) in a dopaminergic neuronal cell line. Using this assay the potency and efficacy of test articles against HGOS neuronal cell injury and cell death was established in a high throughput manner.
The cells were seeded into 96-well plates at a density of 2000 per well and left to grow for 72 hours in a 33° C. incubator with 5% CO2 in air atmosphere. The passage number of the cells for each assay experiment were no later than p11 in order to minimize experimental variation.
All compounds were dissolved in DMEM-No Glu containing 1 mM glucose, 30 mM glutamate and 1×Pen/Strep. DMEM-No Glu with 1 mM glucose and 1×P/S was used as the negative control, DMEM-No Glucose with 1 mM glucose, […] was used as a positive control and 100 μM Glutathione was added to the positive control as a standard. All of the procedures for this involving the making and dilution of compounds were performed using aseptic conditions and with minimal light.
The plates were removed from the incubator and examined under the microscope for morphological appearance and density. Using an aseptic technique and an 8-channel aspirator the media was carefully removed from the cells and replaced with 200 μl of 1×HBSS. This was done as quickly as possible to prevent the cells drying out. The plates were then placed in the humidified 37° C. incubators of the Biomek 2000 Side Loader. Four plates were washed at a time so as to minimize the time that the cells were sitting in 1×HBSS prior to addition of the compound test solution.
The Beckman Biomek workstations were used to load the compounds and controls from the mother plates onto the cell plates that were prewashed with HBSS under sterile conditions. The plates were incubated in the upper HTS incubator at 37° C. in 5% CO2 for exactly 16 hrs. The following day, using the Beckman Biomek workstations, the plates were removed from the incubator. Using Cell Tracker Addition, the compounds were removed from the plates, washed once with […] of pre-warmed 1×HBSS and then 100 μL of 5 μM Cell Tracker Green was added to each well. The plates were incubated at 37° C. for 30 min to allow the dye to enter the cell and be cleaved by the esterases. After washing the cells twice with prewarmed 1×HBSS, the plates were read with the 485 excitation; 538 emission filter pair on a Fluoroskan.

One may read the EC50 as the midpoint of the concentration-response curve. Turning to `Cc1c(O)c2c(c3c1CCC(C)(C)O3)C1CCC2CC1` [2,2,5-Trimethyl-3,4,7,8,9,10-hexahydro-7,10-ethano-2H-benzo[h]chromen-6-ol], the EC50 in assay [1] is not above 5 µM. Also, the IC50 in assay [2] is not above 10 µM.
With `CC1(C)CCc2cc(O)c3c(c2O1)C1CCC3C1` (stereo not drawn) [2,2-Dimethyl-3,4,7,8,9,10-hexahydro-7,10-methano-2H-benzo[h]chromen-6-ol], the EC50 is not above 5 µM in assay [1] and not above 10 µM in assay [3]. Also, the results for the IC50 in assay [2] and in assay [4] were not above 10 µM and not above 5 µM, respectively.
With `CC1(CCCSc2ccncc2)CCc2cc(O)c3c(c2O1)C1CCC3C1` (stereo not drawn) [2-Methyl-2-[3-(pyridin-4-ylsulfanyl)-propyl]-3,4,7,8,9,10-hexahydro-7,10-methano-2H-benzo[h]chromen-6-ol], in assay [1], the 50% effective concentration (EC50) was not above 5 µM. The results for the IC50 in assay [2] and in assay [4] were not above 10 µM and not above 5 µM, respectively.
Regarding `CC1(c2nccs2)CCc2cc(O)c3c(c2O1)C1CCC3C1` (stereo not drawn) [2-Methyl-2-thiazol-2-yl-3,4,7,8,9,10-hexahydro-7,10-methano-2H-benzo[h]chromen-6-ol], the EC50 in assay [1] was not above 5 µM. In assay [2], the IC50 is not above 10 µM.
As to `CC1(c2cccs2)CCc2cc(O)c3c(c2O1)C1CCC3C1` (stereo not drawn) [2-methyl-2-thiophen-2-yl-3,4,7,8,9,10-hexahydro-7,10-methano-2H-benzo[h]chromen-6-ol], the EC50 in assay [1] was not above 5 µM; in assay [3] it was not above 10 µM; in assay [5] it was not above 1 µM. Moreover, in assay [2], the IC50 was not above 10 µM.
